Numbers after ± are expanded uncertainties.
Tests used:
[1] = 100.7 kPa, Liquid; for viscosity: Falling or rolling sphere viscometry; for speed of sound: Frequency=3 MHz, Sing-around technique in a fixed-path interferometer; for mass density: Vibrating tube method
[2] = xn = mol fraction of the nth substance listed; conditions: 100.7 kPa, Liquid; for viscosity: Falling or rolling sphere viscometry; for speed of sound: Frequency=3 MHz, Sing-around technique in a fixed-path interferometer; for mass density: Vibrating tube method

Structure (SMILES) | viscosity ([1]; 298.15 K) [mPa·s] | speed of sound ([1]; 298.15 K) [m/s] | mass density ([1]; 298.15 K) [kg/m3] | viscosity ([1]; 303.15 K) [mPa·s] | speed of sound ([1]; 303.15 K) [m/s] | mass density ([1]; 303.15 K) [kg/m3] | viscosity ([1]; 308.15 K) [mPa·s] | speed of sound ([1]; 308.15 K) [m/s] | mass density ([1]; 308.15 K) [kg/m3] | viscosity ([1]; 313.15 K) [mPa·s] | speed of sound ([1]; 313.15 K) [m/s] | mass density ([1]; 313.15 K) [kg/m3] | viscosity ([1]; 318.15 K) [mPa·s] | speed of sound ([1]; 318.15 K) [m/s] | mass density ([1]; 318.15 K) [kg/m3] | viscosity ([1]; 323.15 K) [mPa·s] | speed of sound ([1]; 323.15 K) [m/s] | mass density ([1]; 323.15 K) [kg/m3] | other results
CCCC[n+]1ccn(C)c1.O=S(=O)([N-]S(=O)(=O)C(F)(F)F)C(F)(F)F | 50.04 ± 5 | 1227.8 ± 1.5 | 1436.82 ± 0.62 | 40.72 ± 4.1 | 1217.5 ± 1.5 | 1431.98 ± 0.61 | 33.73 ± 3.4 | 1205.2 ± 1.5 | 1427.16 ± 0.61 | 28.28 ± 2.8 | 1194.4 ± 1.5 | 1422.37 ± 0.6 | 24.01 ± 2.4 | 1184.5 ± 1.5 | 1417.6 ± 0.6 | 20.32 ± 2 | 1171.3 ± 1.5 | 1412.86 ± 0.59 | 
CCCC[n+]1ccn(C)c1.O=S(=O)([N-]S(=O)(=O)C(F)(F)F)C(F)(F)F + CCCC=O |  |  |  |  |  |  |  |  |  |  |  |  |  |  |  |  |  |  | viscosity ([2]; 298.15 K, x1 = 1): 50.04 ± 3 mPa·s; speed of sound ([2]; 298.15 K, x1 = 1): 1227.8 ± 1.5 m/s; mass density ([2]; 298.15 K, x1 = 1): 1436.82 ± 0.62 kg/m3; viscosity ([2]; 303.15 K, x1 = 1): 40.72 ± 2.5 mPa·s; speed of sound ([2]; 303.15 K, x1 = 1): 1217.5 ± 1.5 m/s; mass density ([2]; 303.15 K, x1 = 1): 1431.98 ± 0.61 kg/m3; viscosity ([2]; 308.15 K, x1 = 1): 33.73 ± 2.1 mPa·s; speed of sound ([2]; 308.15 K, x1 = 1): 1205.2 ± 1.5 m/s; mass density ([2]; 308.15 K, x1 = 1): 1427.16 ± 0.61 kg/m3; viscosity ([2]; 313.15 K, x1 = 1): 28.28 ± 1.7 mPa·s; speed of sound ([2]; 313.15 K, x1 = 1): 1194.4 ± 1.5 m/s; mass density ([2]; 313.15 K, x1 = 1): 1422.37 ± 0.6 kg/m3; viscosity ([2]; 318.15 K, x1 = 1): 24.01 ± 1.5 mPa·s; speed of sound ([2]; 318.15 K, x1 = 1): 1184.5 ± 1.5 m/s; mass density ([2]; 318.15 K, x1 = 1): 1417.6 ± 0.6 kg/m3; viscosity ([2]; 323.15 K, x1 = 1): 20.32 ± 1.2 mPa·s; speed of sound ([2]; 323.15 K, x1 = 1): 1171.3 ± 1.5 m/s; mass density ([2]; 323.15 K, x1 = 1): 1412.86 ± 0.59 kg/m3
CCCC[n+]1ccn(C)c1.O=S(=O)([N-]S(=O)(=O)C(F)(F)F)C(F)(F)F + CCCCN |  |  |  |  |  |  |  |  |  |  |  |  |  |  |  |  |  |  | viscosity ([2]; 298.15 K, x1 = 1): 50.04 ± 3 mPa·s; speed of sound ([2]; 298.15 K, x1 = 1): 1227.8 ± 1.5 m/s; mass density ([2]; 298.15 K, x1 = 1): 1436.82 ± 0.62 kg/m3; viscosity ([2]; 303.15 K, x1 = 1): 40.72 ± 2.5 mPa·s; speed of sound ([2]; 303.15 K, x1 = 1): 1217.5 ± 1.5 m/s; mass density ([2]; 303.15 K, x1 = 1): 1431.98 ± 0.61 kg/m3; viscosity ([2]; 308.15 K, x1 = 1): 33.73 ± 2.1 mPa·s; speed of sound ([2]; 308.15 K, x1 = 1): 1205.2 ± 1.5 m/s; mass density ([2]; 308.15 K, x1 = 1): 1427.16 ± 0.61 kg/m3; viscosity ([2]; 313.15 K, x1 = 1): 28.28 ± 1.7 mPa·s; speed of sound ([2]; 313.15 K, x1 = 1): 1194.4 ± 1.5 m/s; mass density ([2]; 313.15 K, x1 = 1): 1422.37 ± 0.6 kg/m3; viscosity ([2]; 318.15 K, x1 = 1): 24.01 ± 1.5 mPa·s; speed of sound ([2]; 318.15 K, x1 = 1): 1184.5 ± 1.5 m/s; mass density ([2]; 318.15 K, x1 = 1): 1417.6 ± 0.6 kg/m3; viscosity ([2]; 323.15 K, x1 = 1): 20.32 ± 1.2 mPa·s; speed of sound ([2]; 323.15 K, x1 = 1): 1171.3 ± 1.5 m/s; mass density ([2]; 323.15 K, x1 = 1): 1412.86 ± 0.59 kg/m3
CCCCN [1-butanamine] | 0.47 ± 0.03 | 1246.5 ± 1.3 | 733.33 ± 0.2 | 0.44 ± 0.03 | 1223.9 ± 1.3 | 728.5 ± 0.2 | 0.41 ± 0.03 | 1201.3 ± 1.3 | 723.67 ± 0.2 | 0.39 ± 0.02 | 1178.7 ± 1.3 | 718.66 ± 0.2 | 0.37 ± 0.02 | 1156.2 ± 1.3 | 714.1 ± 0.2 | 0.35 ± 0.02 | 1133.5 ± 1.3 | 709.21 ± 0.2 | 
CCCC=O [butanal] | 0.43 ± 0.03 | 1193.8 ± 1.4 | 796.99 ± 0.21 | 0.4 ± 0.02 | 1172.7 ± 1.4 | 791.8 ± 0.21 | 0.39 ± 0.02 | 1151.6 ± 1.4 | 786.41 ± 0.21 | 0.36 ± 0.02 | 1130.6 ± 1.4 | 781.37 ± 0.21 | 0.35 ± 0.02 | 1109.6 ± 1.4 | 776.39 ± 0.21 | 0.32 ± 0.02 | 1088.8 ± 1.4 | 771.3 ± 0.22 | 
CCCCOC(C)=O [butyl ethanoate] | 0.67 ± 0.07 |  |  | 0.64 ± 0.06 |  |  | 0.58 ± 0.06 |  |  | 0.57 ± 0.06 |  |  | 0.53 ± 0.05 |  |  | 0.5 ± 0.05 |  |  | 
CCCCOC(C)=O [butyl ethanoate] + CCCC[n+]1ccn(C)c1.O=S(=O)([N-]S(=O)(=O)C(F)(F)F)C(F)(F)F |  |  |  |  |  |  |  |  |  |  |  |  |  |  |  |  |  |  | viscosity ([2]; 298.15 K, x2 = 0): 0.67 ± 0.07 mPa·s; speed of sound ([2]; 298.15 K, x2 = 0): 1190.5 ± 1.4 m/s; mass density ([2]; 298.15 K, x2 = 0): 876 ± 0.2 kg/m3; viscosity ([2]; 303.15 K, x2 = 0): 0.64 ± 0.06 mPa·s; speed of sound ([2]; 303.15 K, x2 = 0): 1169.8 ± 1.4 m/s; mass density ([2]; 303.15 K, x2 = 0): 870.86 ± 0.2 kg/m3; viscosity ([2]; 308.15 K, x2 = 0): 0.58 ± 0.06 mPa·s; speed of sound ([2]; 308.15 K, x2 = 0): 1149.2 ± 1.4 m/s; mass density ([2]; 308.15 K, x2 = 0): 865.69 ± 0.2 kg/m3; viscosity ([2]; 313.15 K, x2 = 0): 0.57 ± 0.06 mPa·s; speed of sound ([2]; 313.15 K, x2 = 0): 1128.8 ± 1.4 m/s; mass density ([2]; 313.15 K, x2 = 0): 860.49 ± 0.2 kg/m3; viscosity ([2]; 318.15 K, x2 = 0): 0.53 ± 0.05 mPa·s; speed of sound ([2]; 318.15 K, x2 = 0): 1108.5 ± 1.4 m/s; mass density ([2]; 318.15 K, x2 = 0): 855.28 ± 0.2 kg/m3; viscosity ([2]; 323.15 K, x2 = 0): 0.5 ± 0.05 mPa·s; speed of sound ([2]; 323.15 K, x2 = 0): 1088.3 ± 1.4 m/s; mass density ([2]; 323.15 K, x2 = 0): 850.03 ± 0.21 kg/m3

Reference: the NIST ThermoML archive (doi:10.1016/j.jct.2015.09.022)
